Data reported in US20090298178A1, “GROWTH FACTORS FOR PRODUCTION OF DEFINITIVE ENDODERM” (priority 2008, published 2009).

Columns and labels:
[1] = test system: hES cells (CyT49; passage 35); assay: Differentiation of hES cells to definitive endoderm with activin A plus Wnt3a or GSK3 inhibitors, real-time quantitative PCR at 48 hours (Example 4); type: cell-based, human; conditions: with 100 ng/mL activin A; inhibitor at 10 or 100 nM; FIG. 6A-B
Description: Undifferentiated hES cells (CyT49; passage 35) were maintained substantially as described in Example 1 above. Ten hES cell culture plates were then differentiated in RPMI (Mediatech) supplemented with Glutamax, penicillin/streptomycin, and varying concentrations of defined FBS (HyClone). FBS concentrations were 0% for the first 24 h and 0.2% for the second 24 h. Additionally, 0.1% BSA (Invitrogen/Gibco) was added on the first day only. All plates received 100 ng/mL activin A for both days. […] Replicate samples were collected from each culture condition at 48 hours after differentiation commenced and analyzed for relative gene expression using real-time quantitative PCR.

[2] = test system: hES cells (CyT49; passage 48); assay: Differentiation of hES cells with other TGF-beta family member proteins, real-time quantitative PCR (Example 3); type: cell-based, human; conditions: for CDX2 induction level, fold higher expression over that observed with the activin A treatment: GDF3 500 ng/ml, TGF-beta3 100 ng/mL, FIG. 4C
Description: Undifferentiated human embryonic stem (hES) cells (CyT49; passage 48) were maintained substantially as described in Example 1 above. Seven hES cell culture plates were then differentiated in RPMI (Mediatech) supplemented with Glutamax, penicillin/streptomycin, and either: i) activin A (100 ng/ml), ii) TGF-beta1 (100 ng/ml), iii) TGF-beta3 (100 ng/mL), iv) TGF-beta2 (200 ng/ml), v) GDF3 (500 ng/ml), vi) GDF9 (4 ug/ml), or vii) GDF15 (2.5 ug/ml) and varying concentrations of defined FBS (HyClone). Additionally, 0.1% BSA (Invitrogen/Gibco) and 75 ng/mL Wnt3a (R&D Systems) were added on the first day (d0) of differentiation. FBS concentrations were 0% for the first 24 h and 0.2% for the second 24 h. Replicate samples were collected from each culture condition at 0, 24 and 48 hours after differentiation commenced and analyzed for relative gene expression using real-time quantitative PCR.

[3] = test system: hES cells (CyT49; passage 48); assay: Further differentiation to pancreatic endoderm and endocrine cells, real-time PCR at 12 days (Example 3); type: cell-based, human; conditions: 12 days of differentiation
Description: (§1) Human ES cell cultures were maintained and differentiated substantially as described above in Example 1, and further differentiated to foregut endoderm (stage 2) and then onto pancreatic endoderm and pancreatic endocrine cells (stages 3 and 4). After 48 hours of differentiation to definitive endoderm (stage 1) the cells were briefly washed in PBS+/+ and then further differentiated in RPMI supplemented with 0.2% FBS, Insulin-Transferrin-Selenium (1:1000), Glutamax, penicillin/streptomycin, and 25 ng/mL KGF (R&D Systems) for 3 days. On the first day of stage 2, the culture also received TGF-beta inhibitor No. 4 (3-(6-Methylpyridin-2-yl)-4-(4-quinolyl)-1-phenylthiocarbamoyl-1H-pyrazole) at 2.5 uM (EMD Bioscience). After three days in stage 2 the cells were then differentiated for one day in DMEM with B27 supplement (1:100) containing all-trans retinoic acid (RA) at 0.2 uM and KAAD-cyclopamine at 0.25 uM. Following the single day of retinoid exposure, the cells were cultured in DMEM with B27 (1:100) containing noggin at 40 ng/ml. At day 9 of total differentiation, replicate samples were collected from each culture condition and analyzed for relative gene expression using real-time quantitative PCR.
Such conditions are described in Example 2 above. In this example, however, the stage 4 noggin treatment lasted for 6 days and replicate samples were taken for real-time PCR analysis at a total of 12 days of differentiation as compared to 9 days of differentiation in Example 2. […] Similarly, the pancreatic endoderm or endocrine cells expressing endocrine markers NKX2-2 and INS were typically not detected in the non-activin A treated plates (FIG. 5C-D). Stated another way, the activin A treated plates were 1200-fold or more higher in expression of these markers than the non-Activin A treated plates.

hES cells = conditions: McLean et al. Stem Cells 25:29-38 2007; cited from earlier work
hES cells (CyT49) = assay: Further differentiation of definitive endoderm to pancreatic endoderm and endocrine cells, real-time PCR at day 9 (Example 2); type: cell-based, human; conditions: definitive endoderm produced with 100 ng/mL factor, compared with activin A, FIG. 3
Description: as §1

[4] = test system: hES cells (CyT49; passage 41); assay: Differentiation of hES cells to definitive endoderm (stage 1) with TGF-beta member growth factors, real-time quantitative PCR (Example 1); type: cell-based, human; conditions: for effectiveness for induction of definitive endoderm differentiation derived from hES cells: compared with activin A; for fold induction of SOX17 gene expression as compared to undifferentiated hESCs / fold induction of FOXA2 gene expression as compared to undifferentiated hESCs: 100 ng/ml factor, 75 ng/mL Wnt3a on first day, day 2 of differentiation; for fold induction of SOX17 gene expression as compared to undifferentiated hESCs: FIG. 2C; for efficiency in generating definitive endoderm cell populations: sufficient amounts, compared to Activin A and activin B
Text: Human embryonic stem (hES) cells were differentiated in vitro to definitive endoderm (stage 1) for about 2-4 days substantially as described in D'Amour et al. 2006 Nat Biotechnol 24(11):1392-401 and U.S. Patent Application Publication Number 2007/0154984, which are herein incorporated in their entireties. Briefly, undifferentiated human embryonic stem (hES) cells were maintained on mouse embryo fibroblast feeder layers (Millipore, formerly Chemicon or Specialty Media) or on human serum coated plates (Valley Biomedical) in DMEM/F12 (Mediatech) supplemented with 20% KnockOut serum replacement (Invitrogen/Gibco), 1 mM nonessential amino acids (Invitrogen/Gibco), Glutamax (Invitrogen/Gibco), penicillin/streptomycin (Invitrogen/ Gibco), 0.55 mM 2-mercaptoethanol (Invitrogen/Gibco) and 4 ng/ml to 20 ng/mL recombinant human FGF2 (R&D Systems). Low dosages of Activin A (10-25 ng/ml, R&D Systems) were added to the growth culture medium to help maintain undifferentiated growth. Cultures were either manually passaged, or enzymatically passaged using 5 ug/mL dispase (Invitrogen/Gibco), or passaged using Accutase (Innovative Cell Technologies #AT104) at 1:4-1:15 split ratios every 3-7 days. Before initiating differentiation, hES cells were given a brief wash in PBS+/+ (PBS+/+ refers to PBS containing both calcuim and magnesium) (Mediatech).
Four hES cell culture plates (CyT49; passage 41) were then differentiated in RPMI (Mediatech) supplemented with Glutamax, penicillin/streptomycin, and with either: i) 100 ng/mL activin A, ii) 100 ng/mL of activin B (R&D Systems), iii) 100 ng/mL of GDF8, or iv) 100 ng/mL of GDF11 (R&D Systems) and varying concentrations of defined FBS (HyClone). Additionally, 0.1% BSA (Invitrogen/Gibco) and 75 ng/mL Wnt3a (R&D Systems) were added on the first day (d0) of differentiation. FBS concentrations were 0% for the first 24 h and 0.2% for the second 24 h. Replicate samples were collected from each culture condition at 0, 24 and 48 hours after differentiation commenced and analyzed for relative gene expression using real-time quantitative PCR.

COc1ccc(CNC(=O)Nc2ncc([N+](=O)[O-])s2)cc1 [GSK3 inhibitor No. 8]
differentiation of hES cells to definitive endoderm [1]: Neither GSK3 inhibitor No. 9 (“BIO”) nor GSK3 inhibitor No. 8 (GVIII) at 10 or 100 nM resulted in substantial differentiation

activin A: TGF-beta family growth factor used at 100 ng/mL to produce definitive endoderm
definitive endoderm production as indicated by induction of SOX17 and CER1 gene expression ([2]; activin A 100 ng/ml, other ligands 100 ng/ml to 4 ug/ml, 75 ng/mL Wnt3a on first day, FIG. 4A-B): definitive endoderm was produced only in the activin A treatment condition
expression of endocrine markers NKX2-2 and INS, fold higher than the non-Activin A treated plates ([3]; FIG. 5C-D): ≥ 1200 fold
production of pancreatic endoderm and endocrine cell types as indicated by induction of PDX1, PTF1A, NKX2-2 and INS gene expression ([3]; FIGS. 5A-D): produced only in the activin A treatment condition
PDX1 expression level, fold higher in the presence of activin A as compared to GDF15 ([3]; comparator GDF15, FIG. 5A): 14,497 fold
PDX1 expression level, fold higher in the presence of activin A as compared to TGF-beta1 ([3]; comparator TGF-beta1, FIG. 5A): 1413 fold

insulin: protein that binds to the insulin receptor and can induce signaling
insulin concentration detrimental for the production of definitive endoderm cells from hES cells (hES cells): ≥ 0.2 µg/mL

GDF8: TGF-beta family member, also referred to as myostatin
subsequent differentiation of definitive endoderm to pancreatic endoderm expressing PDX1 and PTF1A or endocrine cells expressing NKX2-2 (hES cells (CyT49)): as effective
effectiveness for induction of definitive endoderm differentiation derived from hES cells ([4]; 100 ng/mL): as effective as activin A
fold induction of SOX17 gene expression as compared to undifferentiated hESCs [4]: 1324 fold
fold induction of FOXA2 gene expression as compared to undifferentiated hESCs ([4]; FIG. 2D): 438 fold
efficiency in generating definitive endoderm cell populations [4]: more efficient compared to activin B

O=C1Nc2cc(Br)ccc2/C1=C1/Nc2ccccc2/C1=N\O [GSK3 inhibitor No. 9]
differentiation of hES cells to definitive endoderm [1]: Neither GSK3 inhibitor No. 9 (“BIO”) nor GSK3 inhibitor No. 8 (GVIII) at 10 or 100 nM resulted in substantial differentiation

GDF11: TGF-beta family member with approximately 90% identity to myostatin
subsequent differentiation of definitive endoderm to pancreatic endoderm expressing PDX1 and PTF1A or endocrine cells expressing NKX2-2 (hES cells (CyT49)): as effective
effectiveness for induction of definitive endoderm differentiation derived from hES cells ([4]; 100 ng/mL): as effective as activin A
fold induction of SOX17 gene expression as compared to undifferentiated hESCs [4]: 1306 fold
fold induction of FOXA2 gene expression as compared to undifferentiated hESCs ([4]; FIG. 2D): 382 fold
efficiency in generating definitive endoderm cell populations [4]: more efficient compared to activin B

B1: GDF3: TGF-beta family member also known as Vg-related gene 2 (protein, UniProt Q9NR23 251-364, looked up)
Growth/differentiation factor …: AAIPVPKLSCKNLCHRHQLFINFRDLGWHKWIIAPKGFMANYCHGECPFSLTISLNSSNYAFMQALMHAVDPEIPQAVCIPTKLSPISMLYQDNNDNVILRHYEDMVVDECGCG
CDX2 induction level, fold higher expression over that observed with the activin A treatment [2]: 900 fold

B2: TGF-beta3: isoform of transforming growth factor beta (protein, UniProt P10600 301-412, looked up)
Transforming growth factor …: ALDTNYCFRNLEENCCVRPLYIDFRQDLGWKWVHEPKGYYANFCSGPCPYLRSADTTHSTVLGLYNTLNPEASASPCCVPQDLEPLTILYYVGRTPKVEQLSNMVVKSCKCS
CDX2 induction level, fold higher expression over that observed with the activin A treatment [2]: 2,667 fold

B3: activin B: TGF-beta family growth factor (R&D Systems) (protein, UniProt P09529 293-407, looked up)
Inhibin beta B chain: GLECDGRTNLCCRQQFFIDFRLIGWNDWIIAPTGYYGNYCEGSCPAYLAGVPGSASSFHTAVVNQYRMRGLNPGTVNSCCIPTKLSTMSMLYFDDEYNIVKRDVPNMIVEECGCA
subsequent differentiation of definitive endoderm to pancreatic endoderm expressing PDX1 and PTF1A or endocrine cells expressing NKX2-2 (hES cells (CyT49)): less effective
expression of ISL1 as compared to activin A treated cultures ([4]; 100 ng/mL, FIG. 2B, indicates mesoderm differentiation): higher expression
FOXA2 induction (in words) ([4]; 100 ng/mL, FIG. 2D): lower
